Laboratory results: a compilation of properties of binary mixtures (doi:10.1016/j.molliq.2020.113380)

Assay: xn = mol fraction of the nth substance listed
Details: 86 kPa, x2 = 0.5

O=C(O)COCC(=O)O + CCCC[N+](CCCC)(CCCC)CCCC.O=S(=O)([O-])O
Details | electrical conductivity [S/m] | speed of sound [m/s] | viscosity [mPa·s]
293.15 K | 0.0002 | 1820.2 | –
298.15 K | 0.0004 | 1770.7 | –
303.15 K | 0.0007 | 1720.3 | 38300
308.15 K | 0.0013 | 1690.7 | 21200
313.15 K | 0.0022 | 1661.5 | 12020
318.15 K | 0.0035 | 1630.3 | 7750
323.15 K | 0.0054 | 1603.6 | 5450
328.15 K | 0.0081 | 1581 | 3520
333.15 K | 0.0117 | 1560.2 | 2500
338.15 K | – | – | 1750
343.15 K | – | – | 1250
